Assay results: patent publication US10653672B2, “Myogenesis promotor, muscle atrophy inhibitor, medical composition and TAZ activator” (National University Corporation Tokyo Medical and Dental …, priority 2014, dated 2020)
Values joined by “and” are separate entries in the source; they are usually repeats but may differ in a detail not shown here. Identical values can stand only once.

Columns and labels:
A549 cells = experiment: Immunoblotting of EMT markers in A549 cells; assay type: cell-based, human
Protocol: (1) A431 cells, (epidermoid carcinoma), A549 cells (adenocarcinomic human alveolar basal epithelial cell) and HCT116 cells (human colon cancer) were treated with IBS008738 or DMSO, respectively, and evaluated by immunoblotting.
HEK293, A431, A549, HCT116, MCF7 and SW480 cells were cultured in Dulbecco's Modified Eagle Medium (DMEM) containing 10% fetal bovine serum (FBS), 10 mM HEPES-NaOH at pH 7.4, 100 U/ml penicillin and 100 mg/I streptomycin under 5% CO2 at 37° C.

[1] = tested on: binding of MyoD to myogenin promoter; experiment: Chromatin immunoprecipitation, MyoD on myogenin promoter; assay type: cell-based, mouse; settings: C2C12 cells; 10 μM; differentiation condition 24 hours; protein G sepharose without antibody; listed as IBS008738
Protocol: (1) Chromatin immunoprecipitation of MyoD, TEAD and Pax3 was performed on C2C12 cells that were cultured under differentiation condition for 24 hours in a culture medium added with IBS008738 or DMSO at a concentration of 10 μM. Myogenin, connective tissue growth factor (CTGF) and MyfS were detected by PCR, respectively. The immunoprecipitation with protein G sepharose was used as a control (Mock ChIP). […] The line and the error bar in the figure indicate the average value and the standard error, *p<0.05, ***p<0.001, ns refers to not significant.
The Chromatin immunoprecipitation was performed according to the following process. C2C12 cells were cultured to confluence, and then treated with IBS008738 or DMSO at a concentration of 10 μM in a differentiation medium for 24 hours. The cells were crosslinked in 1.42% (v/v) formaldehyde for 15 minutes, and the reaction was quenched by treating with 125 mM glycine for 5 minutes. […] Shearing was analyzed by agarose gel electrophoresis. […] The immunoprecipitated DNA fragments were isolated using Chelex-100 resin and diluted by 1:2.5 for quantitative PCR analysis. Input normalized relative abundance was determined.

MyoD reporter = experiment: Luciferase reporter assay, MyoD reporter; assay type: cell-based; settings: Mus musculus, C2C12, 24 h, C2C12 cells expressing reporter and TAZ WT, differentiation medium 24 hours
Protocol: The effect and its degree on the activity of a reporter, derived from a transcription factor that interacts with TAZ in C2C12 cells, were evaluated. Specifically, C2C12 cells expressing luciferase reporters corresponding to MyoD, TEAD, SMAD and Pax3 and C2C12 cells expressing these luciferase reporters and TAZ were cultured in a culture medium added with IBS008738 or DMSO at a concentration of 10 μM, respectively. […] The line and the error bar indicate the average value and the standard error, *p<0.05, **p<0.01, ns refers to not significant.
Transfection of the luciferase reporters was performed to the C2C12 cells after being plated at 12-well plates (1×10^5 cells/well) and cultured overnight. As the luciferase reporters, pGL3 Myo-184- (MyoD-), 8×GT-IIC-δ51LucII- (TEAD-), 9×CAGA-MLP-(SMAD-), and p(PRS-1/-4)3- (Pax3-) were transfected to the cells alone or with TAZ. These reporter vectors were from Keiji Miyazawa (Yamanashi University), Hiroshi Sasaki (Kumamoto University) and Hiroki Kurihara (The University of Tokyo).
Immediately after the transfection, DMSO or IBS008738 was added at a concentration of 10 μM, respectively. After growing the cells to confluence, the cells were transferred to a differentiation medium with DMSO or IBS008738, and cultured for 24 hours before the luciferase assay.

A431 cells = experiment: Tumor sphere formation of A431 cells; assay type: cell-based; settings: Ultra Low Attachment plate, serum-free medium, 10 μM, 10 days, maximum diameter of 30 cell aggregates
Protocol: (2) Each well of a 96-well plate was pre-coated with 30 μL BD Matrigel (trade name, Becton, Dickinson and Company). A431 cells were suspended in the 2% BD Matrigel at a concentration of 2.1×10^6 cells/mL. This cell solution (140 μL) was added with 0.17 μL of 10 mM IBS008739 stock solution in DMSO or 0.17 μL of DMSO, and used to layer the pre-coated wells, and proliferation in the 3D matrigel was observed (see FIG. 12B). 300 of A431 cells were placed in each well of Ultra Low Attachment 96-well plate, and cultured in a serum-free DMEM-F-12 medium containing 10 ng/mL FGF, 5 μg/mL insulin and 0.1% (w/v) BSA. Formation of tumor spheres was observed under the condition with 10 mM IBS008739 stock solution dissolved in DMSO so that the final concentration was 10 μM, or the condition with DMSO of the same volume (see FIG. 12C). The maximum diameter of 30 cell aggregates of 150 μm or more observed in the 3D matrigel or sphere formation condition) are measured as the size of 3D colony or sphere. The results are shown in Table 10 and FIGS. 12B and 12C. The line in the figure is 200 μm. The line and the error bar indicate the average value and the standard error, and ns refers to not significant.
Observation of the spheres and the 3D matrigel cultivation were performed by the following processes. […]

## Cc1ccc(-n2cnc(/N=C/N3CCOCC3)c2C(=O)c2ccccc2)cc1 [exemplary compound 1]
A549 cells
  EMT markers (fibronectin, E-cadherin, N-cadherin and vimentin) compared with DMSO: no significant difference
[1]
  Input %, myogenin-p, Mock ChIP: 0.05% and 0.08%
MyoD reporter
  fold induction at 10 µM: 6.92
A431 cells
  Sphere size, average size (μm): 176.63 μm
